{"source": "paper PMC9794833", "about": "“Ligand recognition and activation of neuromedin U receptor 2” (Nature Communications, 2022)", "key": {"[1]": {"target": "T1, NMU2 (Homo sapiens, UniProt Q9GZQ4)", "T1 construct": "HA signal peptide (N); expressed in transfected cells; host or cells: HEK 293F", "assay": "IP accumulation assay (IP-One Gq kit), WT NMU2", "format": "cell-based", "conditions": "10 μM R-PSOP", "method": "(§1) NMU2 constructs of WT and mutants were constructed into PTT5 vector (Invitrogen), as mentioned above. HEK 293F cells were transiently transfected with WT or mutants with total of 2000 ng plasmid DNA using transfection reagent (PEI MAX 2000, Polysciences) and cultivated at 37 °C with 5% CO2. Cells were collected after 48-h transfection. IP accumulation was tested by IP-One Gq assay kit (Cisbio Bioassays, 62IPAPEJ) following the instruction manual. In general, cells were resuspended with 1× HBSS buffer containing 20 mM LiCl (stimulation buffer) and seeded into the white 384-well microplates (Proxi Plate^TM-384 Plus, PerkinElmer) with a density of 20,000 per well. Cells were preincubated with 10^−5 M R-PSOP (provided by Boehringer Ingelheim company, Germany) and gradient concentration from 10^−4 to 10^−11 M of NMU-25 or gradient concentration 10^−4 to 10^−11 M of NMU-25 alone in stimulation buffer at 37 °C for 90 min. The cryptate-labeled anti-IP1 monoclonal antibody and d2-labeled IP1 were diluted with lysis & detection buffer (1:20) and added to each well by 3 μl, respectively. The plates were incubated at room temperature for 60 minutes and then read in a Synerg^TM H1 microplate reader (BioTek) with excitation at 330 nm and emission at 620 and 665 nm. The IP1 production was calculated by a standard dose–response curve and analyzed by GraphPad Prism 8.0."}, "[2]": {"target": "T2, NMU2 E102A (Homo sapiens, UniProt Q9GZQ4, E102A)", "T2 construct": "HA signal peptide (N); expressed in transfected cells; host or cells: HEK 293F", "T2 sequence (Q9GZQ4 whole entry E102A)": "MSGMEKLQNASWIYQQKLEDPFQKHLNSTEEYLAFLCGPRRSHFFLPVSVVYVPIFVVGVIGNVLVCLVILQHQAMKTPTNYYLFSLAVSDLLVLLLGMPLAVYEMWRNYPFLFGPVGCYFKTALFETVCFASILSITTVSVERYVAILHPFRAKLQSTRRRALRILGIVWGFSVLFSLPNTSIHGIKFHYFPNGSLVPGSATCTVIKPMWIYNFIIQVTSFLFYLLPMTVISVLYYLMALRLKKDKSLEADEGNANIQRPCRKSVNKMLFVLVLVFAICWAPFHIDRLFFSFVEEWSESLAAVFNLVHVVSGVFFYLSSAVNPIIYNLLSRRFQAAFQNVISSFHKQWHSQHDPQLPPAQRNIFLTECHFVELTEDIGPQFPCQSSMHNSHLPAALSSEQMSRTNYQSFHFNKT", "assay": "IP accumulation assay, NMU2 mutant E102A", "format": "cell-based", "conditions": "10 μM R-PSOP", "method": "as §1"}, "[3]": {"target": "T3, NMU2 E127A (Homo sapiens, UniProt Q9GZQ4, E127A)", "T3 construct": "HA signal peptide (N); expressed in transfected cells; host or cells: HEK 293F", "T3 sequence (Q9GZQ4 whole entry E127A)": "as the sequence (Q9GZQ4 whole entry E102A) above, with A102E, E127A counted along it", "assay": "IP accumulation assay, NMU2 mutant E127A", "format": "cell-based", "conditions": "10 μM R-PSOP", "method": "as §1"}, "[4]": {"target": "T4, NMU2 F131L (Homo sapiens, UniProt Q9GZQ4, F131L)", "T4 construct": "HA signal peptide (N); expressed in transfected cells; host or cells: HEK 293F, transient transfection, PTT5 vector", "T4 sequence (Q9GZQ4 whole entry F131L)": "as the sequence (Q9GZQ4 whole entry E102A) above, with A102E, F131L counted along it", "assay": "IP accumulation assay, NMU2 mutant F131L", "format": "cell-based", "conditions": "10 μM R-PSOP", "method": "as §1"}, "[5]": {"target": "T5, NMU2 F177C (Homo sapiens, UniProt Q9GZQ4, F177C)", "T5 construct": "HA signal peptide (N); expressed in transfected cells; host or cells: HEK 293F, transient transfection, PTT5 vector", "T5 sequence (Q9GZQ4 whole entry F177C)": "as the sequence (Q9GZQ4 whole entry E102A) above, with A102E, F177C counted along it", "assay": "IP accumulation assay, NMU2 mutant F177C", "format": "cell-based", "conditions": "10 μM R-PSOP", "method": "as §1"}, "[6]": {"target": "T6, NMU2 F224A (Homo sapiens, UniProt Q9GZQ4, F224A)", "T6 construct": "HA signal peptide (N); expressed in transfected cells; host or cells: HEK 293F, transient transfection, PTT5 vector", "T6 sequence (Q9GZQ4 whole entry F224A)": "as the sequence (Q9GZQ4 whole entry E102A) above, with A102E, F224A counted along it", "assay": "IP accumulation assay, NMU2 mutant F224A", "format": "cell-based", "conditions": "10 μM R-PSOP", "method": "as §1"}, "[7]": {"target": "T7, NMU2 H285A (Homo sapiens, UniProt Q9GZQ4, H285A)", "T7 construct": "HA signal peptide (N); expressed in transfected cells; host or cells: HEK 293F, transient transfection, PTT5 vector", "T7 sequence (Q9GZQ4 whole entry H285A)": "as the sequence (Q9GZQ4 whole entry E102A) above, with A102E, H285A counted along it", "assay": "IP accumulation assay, NMU2 mutant H285A", "format": "cell-based", "conditions": "10 μM R-PSOP", "method": "as §1"}, "[8]": {"target": "NMU2", "conditions": "cited from earlier work"}}}
{"smiles": "O=C(Nc1ccccc1)Nc1cnc2c(c1)C[C@@]1(CN3CCC1CC3)O2", "note": "[R-PSOP]", "values": [{"measurement": "Ratio EC50(NmU-25 + R-PSOP)/EC50(NmU-25)", "setting": "[1]", "result": 13}, {"measurement": "Ratio change EC50 ratio (WT)/EC50 ratio (mutant)", "setting": "[1]", "result": 1, "unit": "fold"}, {"measurement": "Ratio EC50(NmU-25 + R-PSOP)/EC50(NmU-25)", "setting": "[2]", "result": 2}, {"measurement": "Ratio change EC50 ratio (WT)/EC50 ratio (mutant)", "setting": "[2]", "result": 6.5, "unit": "fold"}, {"measurement": "antagonist inhibition effect of R-PSOP (in words)", "setting": "[2]; IP accumulation", "result": "abolished"}, {"measurement": "Ratio EC50(NmU-25 + R-PSOP)/EC50(NmU-25)", "setting": "[3]", "result": 2}, {"measurement": "Ratio change EC50 ratio (WT)/EC50 ratio (mutant)", "setting": "[3]", "result": 6.5, "unit": "fold"}, {"measurement": "Ratio EC50(NmU-25 + R-PSOP)/EC50(NmU-25)", "setting": "[4]", "result": 3}, {"measurement": "Ratio change EC50 ratio (WT)/EC50 ratio (mutant)", "setting": "[4]", "result": 4, "unit": "fold"}, {"measurement": "antagonistic effect of R-PSOP (in words)", "setting": "[4]; IP accumulation", "result": "decreased the antagonistic effect of R-PSOP significantly"}, {"measurement": "Ratio EC50(NmU-25 + R-PSOP)/EC50(NmU-25)", "setting": "[5]", "result": 8}, {"measurement": "Ratio change EC50 ratio (WT)/EC50 ratio (mutant)", "setting": "[5]", "result": 1.6, "unit": "fold"}, {"measurement": "antagonistic effect of R-PSOP (in words)", "setting": "[5]; IP accumulation", "result": "decreased the antagonistic effect of R-PSOP significantly"}, {"measurement": "Ratio EC50(NmU-25 + R-PSOP)/EC50(NmU-25)", "setting": "[6]", "result": 4}, {"measurement": "Ratio change EC50 ratio (WT)/EC50 ratio (mutant)", "setting": "[6]", "result": 3, "unit": "fold"}, {"measurement": "antagonist inhibition effect of R-PSOP (in words)", "setting": "[6]; IP accumulation", "result": "abolished"}, {"measurement": "Ratio EC50(NmU-25 + R-PSOP)/EC50(NmU-25)", "setting": "[7]", "result": 20}, {"measurement": "Ratio change EC50 ratio (WT)/EC50 ratio (mutant)", "setting": "[7]", "result": 0.65, "unit": "fold"}, {"measurement": "Ki", "setting": "[8]", "result": 52, "unit": "nM"}]}
